According to US20060128720A1, “Inhibition of cell death responses induced by oxidative stress” (priority 2002, published 2006):

Legend:
[1] = test system: mouse embryo fibroblasts (MEFs); assay: H2O2-induced apoptosis (sub-G1 DNA, propidium iodide) in MEFs; assay type: cell-based; details: 10 μM 24 hours, then 1 mM H2O2 18 hours
Protocol: (§1) Ethanol-fixed cells were stained with propidium iodide and monitored for sub-G1 DNA (upper panels). The percentage (mean±S.E.) of cells with sub-G1 DNA was determined from three separate experiments (lower panels).
(§2) Ethanol-fixed cells were stained with propidium iodide and monitored for sub-G1 DNA by FACScan (Becton-Dickinson) (FIGS. 3A and 3C). The percentage (mean±S.E.) of cells with sub-G1 DNA was determined from three separate experiments (FIGS. 3B and 3D).

[2] = test system: mouse embryo fibroblasts (MEFs); assay: Mitochondrial transmembrane potential (Rhodamine123 flow cytometry) in MEFs; assay type: cell-based; details: 10 μM 24 hours
Protocol: The cells were stained with 50 ng/ml Rhodamine123 for 15 minutes and analyzed by flow cytometry (left panels).
The cells were stained with 50 ng/ml Rhodamine123 (Molecular Probes) for 15 minutes at 37° C. Samples were analyzed by flow cytometry using 488 nm excitation and measurement of emission through a 576/26 (ethidium) bandpass filter (FIGS. 2A and 2B, left panels).

U-937 cells = assay: H2O2-induced apoptosis (sub-G1 DNA, propidium iodide) in U-937 cells; assay type: cell-based, human; details: 10 μM 24 hours, then 1 mM H2O2 18 hours
Protocol: as §1, §2

Cc1ccc(NC(=O)c2ccc(CN3CCN(C)CC3)cc2)cc1Nc1nccc(-c2cccnc2)n1 [STI571, 4-[(4-Methyl-1-piperazinyl)methyl]-N-[4-methyl-3-[[4-(3-pyridinyl)-2-pyrimidinyl]amino-]-phenyl]benzanide methanesulfonate]
decrease of H2O2-induced apoptosis (cells with sub-G1 DNA) [1]: 50% | effect of STI571 alone on mitochondrial transmembrane potential ([2]; no H2O2): no apparent effect | H2O2-induced decrease in mitochondrial transmembrane potential ([2]; then 1 mM H2O2 6 hours): substantially inhibited | inhibitory effects on loss of mitochondrial transmembrane potential at longer periods of H2O2 exposure ([2]; then H2O2 18 hours): detectable | inhibition of H2O2-induced apoptosis (cells with sub-G1 DNA) (U-937 cells): over 80%
